In article PMC9071458, “The tRNA discriminator base defines the mutual orthogonality of two distinct pyrrolysyl-tRNA synthetase/tRNA^Pyl pairs in the same organism” (Nucleic Acids Research, 2022):

Legend:
Assay in all cases: UAG suppression of SAMP1 reporter in H. volcanii, immunoblot and LC-MS/MS of the product
Type in all cases: cell-based
HMET1 PylRS1 [1] = biological target: T1, HMET1 PylRS1 (Candidatus Methanohalarchaeum thermophilum, UniProt A0A1Q6DXK2, N163S/V165I); conditions: 1 mM 3-I-Phe in medium, tRNAPyl1, 42 °C; printed as PylRS1-SI
T1 construct: gene BTN85_1602; deltaPylSn type (catalytic domain only), N-terminal 6xHis tag, expressed in Haloferax volcanii

HMET1 PylRS1 [2] = biological target: T2, HMET1 PylRS1 (Candidatus Methanohalarchaeum thermophilum, UniProt A0A1Q6DXK2); conditions: 1 mM BocK in medium, cognate tRNAPyl1, 42 °C
T2 construct: gene BTN85_1602; deltaPylSn type (catalytic domain only), N-terminal 6xHis tag, expressed in Haloferax volcanii
T2 sequence (A0A1Q6DXK2 1-273): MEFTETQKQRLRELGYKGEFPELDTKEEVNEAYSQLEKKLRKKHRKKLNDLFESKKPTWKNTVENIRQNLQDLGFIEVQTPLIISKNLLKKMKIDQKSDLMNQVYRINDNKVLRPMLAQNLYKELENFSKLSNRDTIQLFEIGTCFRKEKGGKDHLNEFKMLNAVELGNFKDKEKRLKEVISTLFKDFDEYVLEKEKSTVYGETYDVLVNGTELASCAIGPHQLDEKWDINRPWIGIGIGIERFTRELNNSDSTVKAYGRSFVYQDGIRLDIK

HMET1 PylRS2 = biological target: T3, HMET1 PylRS2 (Candidatus Methanohalarchaeum thermophilum, UniProt A0A1Q6DTA0); conditions: 1 mM BocK in medium, cognate tRNAPyl2, 42 °C
T3 construct: gene BTN85_0018; deltaPylSn type (catalytic domain only), N-terminal 6xHis tag, expressed in Haloferax volcanii
T3 sequence (A0A1Q6DTA0 1-273): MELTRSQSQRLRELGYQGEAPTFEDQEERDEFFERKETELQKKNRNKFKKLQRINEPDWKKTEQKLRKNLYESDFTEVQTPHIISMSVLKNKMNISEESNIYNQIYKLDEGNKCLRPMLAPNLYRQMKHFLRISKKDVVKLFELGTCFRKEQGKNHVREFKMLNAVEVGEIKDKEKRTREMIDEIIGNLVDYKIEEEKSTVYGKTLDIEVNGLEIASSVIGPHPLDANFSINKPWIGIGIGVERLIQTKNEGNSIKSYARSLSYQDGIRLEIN

T1 sequence (A0A1Q6DXK2 entry or part of it N163S/V165I): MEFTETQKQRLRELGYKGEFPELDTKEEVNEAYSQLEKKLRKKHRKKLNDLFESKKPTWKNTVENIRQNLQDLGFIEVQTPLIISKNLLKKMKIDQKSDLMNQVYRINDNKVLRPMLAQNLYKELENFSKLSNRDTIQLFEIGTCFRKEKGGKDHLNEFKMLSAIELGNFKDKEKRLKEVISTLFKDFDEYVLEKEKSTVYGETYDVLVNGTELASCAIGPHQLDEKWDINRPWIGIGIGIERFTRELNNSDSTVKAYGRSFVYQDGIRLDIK

SMILES | UAG suppression of SAMP1 reporter in H. volcanii, immunoblot and LC-MS/MS of the (HMET1 PylRS1 [1]) | UAG suppression of SAMP1 reporter in H. volcanii, immunoblot and LC-MS/MS of the (HMET1 PylRS1 [2]) | UAG suppression of SAMP1 reporter in H. volcanii, immunoblot and LC-MS/MS of the (HMET1 PylRS2)
N[C@@H](Cc1cccc(I)c1)C(=O)O [3-I-Phe] | The PylRS1-SI/tRNA^Pyl1 pair exhibited strong amber suppression in a 3-I-Phe-dependent manner |  | 
CC(C)(C)OC(=O)NCCCC[C@H](N)C(=O)O [BocK] |  | both HMET1 PylRS/tRNA^Pyl pairs facilitated efficient amber suppression | native HMET1 PylRS/tRNA^Pyl pairs incorporate BocK into proteins via genetic code expansion in H. volcanii
